For 7 compounds, Ki results are on record in patent US8163754B2, “Purine derivatives for use as adenosine A-2A receptor agonists” (Novartis AG, priority 2004, dated 2012).

Where a name gives a salt, the structure may show the parent alone.

This experiment deals with adenosine A2A receptor (Homo sapiens, UniProt P29274). As to the kind of experiment: A2A receptor agonist assay, method of Murphree et al, Molecular Pharmacology 61, 455-462 (2002). Type of experiment: binding. The note with it: method of L. J. Murphree et al. An excerpt:
Compounds of formula I and their pharmaceutically acceptable salts are useful as pharmaceuticals. In particular, they activate the adenosine A2A receptor, i.e. they act as A2A receptor agonists.

Sequence of adenosine A2A receptor (P29274 whole entry): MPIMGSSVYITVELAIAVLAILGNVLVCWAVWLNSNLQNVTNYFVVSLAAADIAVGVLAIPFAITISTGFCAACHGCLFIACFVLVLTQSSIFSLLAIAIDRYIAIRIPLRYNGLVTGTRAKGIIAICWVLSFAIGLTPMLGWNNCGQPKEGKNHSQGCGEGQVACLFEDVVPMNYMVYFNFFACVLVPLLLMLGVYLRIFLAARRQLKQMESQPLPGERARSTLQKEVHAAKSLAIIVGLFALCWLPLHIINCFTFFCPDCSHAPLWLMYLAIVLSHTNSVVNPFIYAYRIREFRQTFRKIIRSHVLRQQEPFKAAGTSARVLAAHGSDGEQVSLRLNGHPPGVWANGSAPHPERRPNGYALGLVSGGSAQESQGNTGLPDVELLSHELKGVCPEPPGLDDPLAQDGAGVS

For `CCC(=O)N[C@H]1C[C@@H](n2cnc3c(N)nc(NCCc4ccccc4)nc32)[C@H](O)[C@@H]1O` [Example 2, N-[(1S,2R,3S,4R)-4-(6-Amino-2-phenethylamino-purin-9-yl)-2,3-dihydroxy-cvclcpentyl]-propionamide trifluoroacetate], the Ki (in general, a dissociation constant, usually derived from enzyme kinetics or from competition with a known ligand) is 18 nM.
As to `CCCCC#Cc1nc(NCC(c2ccccc2)c2ccccc2)c2ncn([C@@H]3C[C@H](NC(=O)CC)[C@@H](O)[C@H]3O)c2n1` [Example 6, N-{(1S,2R,3S,4R)-4-[6-(2,2-Diphenyl-ethylamino)-2-hex-1-ynyl-purin-9-yl]-2,3-dihydroxy-cyclopentyl}-propionamide], the Ki was 8 nM.
Then `NC1CCN(c2nc(NCC(c3ccccc3)c3ccccc3)c3ncn(C4CC(NC(=O)C5CCC5)C(O)C4O)c3n2)C1` [Example 33, Cyclobutanecarboxylic acid {(1S,2R,3S,4R)-4-[2-((R)-3-amino-pyrrolidin-1-yl)-6-(2,2-diphenyl-ethylamino-3)-purin-9-yl]-2,3-dihydroxy-cyclopentyl}-amide], with 52 nM; and `CCC(=O)N[C@H]1C[C@@H](n2cnc3c(NCC(c4ccccc4)c4ccccc4)nc(C(=O)NCCNC(=O)NC4CCN(c5ccccn5)CC4)nc32)[C@H](O)[C@@H]1O` [Example 38, 9-((1R,2S,3R,4S)-2,3-Dihydroxy-4-propionylamino-cyclopentyl)-6-(2,2-diphenyl-ethylamino)-9H-purine-2-carboxylic acid {2-[3-(3,4,5,6-tetrahydro-2H-[1,2]bipyridinyl-4-yl)ureido]-ethyl}-amide], with 2 nM; and `CCC(=O)N[C@H]1C[C@@H](n2cnc3c(NCC(c4ccccc4)c4ccccc4)nc(N4CC[C@@H](NC(=O)N[C@@H]5CCNC5)C4)nc32)[C@H](O)[C@@H]1O` [Example 39, N-((1S,2R,3S,4R)-4-{6-(2,2-Diphenyl-ethylamino)-2-[(R)-3-((R)-3-pyrrolidin-3-ylureido)-pyrrolidin-1-yl]-purin-9-yl}-2,3-dihydroxy-cyclopentyl)-propionamide trifluoroacetate], with 3 nM.
Then `CCC(=O)N[C@H]1C[C@@H](n2cnc3c(NCC(c4ccccc4)c4ccccc4)nc(C(=O)NCCNC(=O)N[C@H]4CCN(c5ccccn5)C4)nc32)[C@H](O)[C@@H]1O` [Example 47, 9-((1R,2S,3R,4S)-2,3-Dihydroxy-4-propionylamino-cyclopentyl)-6-(2,2-diphenyl-ethylamino)-9H-purine-2-carboxylic acid {2-[3-((S)-1-pyridin-2-yl-pyrrolidin-3-yl)-ureido]-ethyl}-amide trifluoroacetate], with 2 nM.
In turn, `CCC(=O)N[C@H]1C[C@@H](n2cnc3c(NCCC(c4ccccc4)c4ccccc4)nc(NCCc4cn(CC)cn4)nc32)[C@H](O)[C@@H]1O` [Example 61, N-((1S,2R,3S,4R)-4-{6-(3,3-diphenyl-propyl-amino)-2-[2-(1-ethyl-1H-imidazol-4-yl)-ethylamino]-purin-9-yl-2,3-dihydroxy-cyclopentyl}-propionamide trifluoroacetate] returned a Ki of 9 nM.
